Assay results: patent US20240027453A1, “METHOD FOR DETECTION AND QUANTITATIVE MONITORING OF INFECTIONS WITH HERPESVIRUSES” (The Trustees of Princeton University, priority 2020, published 2024)

Key:
HSV-1 [1] = assay: TRUSTED PRM assay of HSV-1 viral protein levels after small molecule treatment; assay type: cell-based; conditions: for DBP (P04296) protein level / TK (P03176) protein level / UL8 (P10192) protein level / UL12 (P04294) protein level / UL30 (P04293) protein level / UL42 (P10226) protein level / US3 (P04413) protein level: E; for DBP (P04296) protein level / TK (P03176) protein level / UL8 (P10192) protein level / UL12 (P04294) protein level / UL30 (P04293) protein level / UL42 (P10226) protein level / US3 (P04413) protein level / ICP0 (P08393) protein level / ICP4 (P08392) protein level / ICP22 (P04485) protein level / UL54 (P10238) protein level / CVC2 (P10209) protein level / UL26 (P10210) protein level / UL48 (P06492) protein level / UL49 (P10233) protein level / gB (P10211) protein level / gI (P06487) protein level: FIG. 8A; for ICP0 (P08393) protein level / ICP4 (P08392) protein level / ICP22 (P04485) protein level / UL54 (P10238) protein level: IE; for CVC2 (P10209) protein level / UL26 (P10210) protein level / UL48 (P06492) protein level / UL49 (P10233) protein level / gB (P10211) protein level / gI (P06487) protein level: L
Experimental: (§1) In example herpesvirus PRM assay methods shown herein, cell pellets were lysed in 2% SDS, 100 mM NaCl, 0.5 mM EDTA, 50 mM Tris, pH 8.2, and 50 μg of protein was reduced and alkylated with 25 mM TCEP and 50 mM CAM respectively for 20 min at 70° C. Proteins were then precipitated via methanol chloroform precipitation (Wessel & Flugg, Anal Biochem. 138(1):141-143, 1984), resuspended in 50 mM HEPES, pH 8.2 and digested overnight with trypsin (50:1 protein:enzyme w/w ratio). Digested peptides were desalted by SDB-RPS StageTip as previously described (Lum et al., Cell Syst., 7(6):[…], 2018; Greco et al., Methods Mol Biol 1410:39-63, 2016; Federspiel & Cristea, Methods Mol Biol., 1977:115-143, 2019).
(§2) Peptides (1.0 μg on column) were analyzed by LC-MS/MS using a Dionex Ultimate 3000 UHPLC coupled online to an EASYSpray ion source and a Q Exactive HF. Peptides were separated on an EASYSpray C18 column (75 μm×25 cm) heated to 50° C. using a linear gradient of 5% B to 32% B over 60 min at a flow rate of 250 nL/min and were ionized at 1.7 kv. Mobile phase A consisted of 0.1% FA in H2O and mobile phase B consisted of 0.1% FA, 2.9% H2O in ACN.
(§3) The PRM method was controlled by a peptide inclusion list with retention time windows of 6 min for selected precursor ions.
(§4) The PRM assay was developed and analyzed using the open-source software Skyline (Maclean et al., Bioinformatics 26(7):966-968, 2010). Summed area under the curve of 3-4 transitions per peptide was used for quantitation. Targeted peptides were normalized to host protein loading control peptides. Peptide values for each sample were scaled to the average of each peptide across all runs. The average of multiple peptides was used as the inferred value for the protein measurement when more than one peptide was quantified (Federspiel et al., PLoS Biol. 17(9):e3000437. Doi: 10.1371/journal.pbio.3000437). PRM quantitation data were graphed using the Python Seaborn and Matplotlib libraries.
(§5) MRC5 primary human fibroblasts (HFs) (ATCC CCL-171) were used as the model system for HSV-1 and HCMV infections and were cultured in complete growth medium (DMEM supplemented with 10% fetal bovine serum and 1% penicillin-streptomycin antibiotics) at 37° C. and 5% CO2. iSLK.219 cells harboring latent KSHV (a gift from Dr. Britt Glaunsinger, University of California, Berkeley) were grown in complete growth medium supplemented with 500 μg/ml hygromycin (ThermoFisher Scientific, 10687010) at 37° C. and 5% CO2. All cells were used for experiments within a maximum of 10 passages.
(§6) Wild type HSV-1 strain 17+ (a gift from Beate Sodeik, Hannover Medical School, Hannover, Germany) was propagated as previously described (Diner et al., 2015). Briefly, PO stocks were generated by electroporating pBAC-HSV-1 into U-2 OS cells. […] In a similar manner, wild type HCMV strain AD169 was produced from BAC electroporation into HFs and working stocks were propagated by infecting HFs at a low level. In both cases, cell-associated virus was released by sonication, combined with supernatant virus, then concentrated by ultracentrifugation (20,000 rpm, 2 hours, 4° C. with SW28 swinging bucket rotor [Beckman Coulter]) over a 10% ficoll (HSV-1) or 20% sorbitol (HCMV) cushion. Virus stock titers were determined by plaque assay for HSV-1 or tissue culture infectious dose (TCID50) for HCMV and infections were performed at a multiplicity of infection (MOI) of 3.
(§7) 12 hours prior to virus infection or reactivation, cells were treated with either the small molecule drug or DMSO/PBS control at an equivalent volume. […] For infection cycles lasting longer than 24 hours, small molecule drugs were re-added to the cell culture medium every 24 hours. Upon collection, cells were rinsed with PBS, scraped into a microcentrifuge tube, pelleted by centrifugation, and rinsed again with PBS.

HSV-1 [2] = conditions: in MRC5 cells; cited from earlier work
HCMV [3] = assay type: cell-based
Experimental: as §1, §2, §3, §4, §5, §6, §7

iSLK.219 cell line = assay: Toxicity to the iSLK.219 cell line; assay type: cell-based; conditions: 50 μM
HCMV [4] = conditions: cited from earlier work
[5] = 1 μM, by and after 12 HPI, vs DMSO

## Nc1nc2c(ncn2COCCO)c(=O)[nH]1 [ACV, acyclovir]
HSV-1 [1]
  HSV-1 late gene expression: reduction
HSV-1 [1]; 1 μM
  effect on IE HSV-1 protein levels: little effect
  levels of HSV-1 proteins DBP, UL42, UL30, UL8, UL12 and UL48: significant reduction
HSV-1 [1]; [5]
  decrease in levels of E HSV-1 proteins: ~20%
  decrease in levels of L HSV-1 proteins: ~35%
HSV-1 [1]; 6 HPI
  expression of IE and E HSV-1 genes: increase
HSV-1 [2]
  IC50: 2 to 3 µM

## Oc1ccc(/C=C/c2cc(O)cc(O)c2)cc1 [Res]
HSV-1 [1]; timepoint 2
  DBP (P04296) protein level: 0.02121
  TK (P03176) protein level: 0.03832
  UL8 (P10192) protein level: 0.0171
  UL12 (P04294) protein level: 0.01763
  UL30 (P04293) protein level: 0.03876
  UL42 (P10226) protein level: 0.003041
  US3 (P04413) protein level: 0.01605
  ICP0 (P08393) protein level: 0.1622
  ICP4 (P08392) protein level: 0.1073
  ICP22 (P04485) protein level: 0.015
  UL54 (P10238) protein level: 0.0667
  CVC2 (P10209) protein level: 0.01003
  UL26 (P10210) protein level: 0.003453
  UL48 (P06492) protein level: 0.007183
  UL49 (P10233) protein level: 0.009894
  gB (P10211) protein level: 0.0128
  gI (P06487) protein level: 0.00718
HSV-1 [1]; timepoint 6
  DBP (P04296) protein level: 0.9121
  TK (P03176) protein level: 0.9707
  UL8 (P10192) protein level: 1.056
  UL12 (P04294) protein level: 0.7418
  UL30 (P04293) protein level: 1.353
  UL42 (P10226) protein level: 0.2866
  US3 (P04413) protein level: 0.616
  ICP0 (P08393) protein level: 0.5333
  ICP4 (P08392) protein level: 1.063
  ICP22 (P04485) protein level: 0.7429
  UL54 (P10238) protein level: 0.9415
  CVC2 (P10209) protein level: 0.2592
  UL26 (P10210) protein level: 0.1986
  UL48 (P06492) protein level: 0.1816
  UL49 (P10233) protein level: 0.428
  gB (P10211) protein level: 0.5098
  gI (P06487) protein level: 0.5705
HSV-1 [1]; timepoint 12
  TK (P03176) protein level: 1.24
  UL8 (P10192) protein level: 0.9123
  UL12 (P04294) protein level: 0.8878
  UL30 (P04293) protein level: 1.001
  UL42 (P10226) protein level: 0.7743
  US3 (P04413) protein level: 1.156
  ICP0 (P08393) protein level: 1.108
  ICP4 (P08392) protein level: 1.101
  ICP22 (P04485) protein level: 1.241
  UL54 (P10238) protein level: 1.026
  CVC2 (P10209) protein level: 0.7067
  UL26 (P10210) protein level: 0.7549
  UL48 (P06492) protein level: 0.8411
  UL49 (P10233) protein level: 1.283
  gB (P10211) protein level: 1.286
  gI (P06487) protein level: 0.956
HSV-1 [1]; timepoint 18
  TK (P03176) protein level: 0.9806
  UL8 (P10192) protein level: 0.8259
  UL12 (P04294) protein level: 0.7425
  UL30 (P04293) protein level: 0.7926
  UL42 (P10226) protein level: 0.7837
  US3 (P04413) protein level: 0.9457
  ICP0 (P08393) protein level: 1.159
  ICP4 (P08392) protein level: 1.049
  ICP22 (P04485) protein level: 1.213
  UL54 (P10238) protein level: 0.8148
  CVC2 (P10209) protein level: 0.601
  UL26 (P10210) protein level: 0.8898
  UL48 (P06492) protein level: 0.9275
  gB (P10211) protein level: 1.306
  gI (P06487) protein level: 1.003

## Oc1ccc(/C=C/c2cc(O)cc(O)c2)cc1 [trans-Resveratrol]
HSV-1 [1]; 10 μM EX-527, 50 μM trans-Resveratrol
  levels of HSV-1 viral transactivators ICP4 and UL48 (VP16): downregulated
HSV-1 [1]; 50 μM
  decrease in HSV-1 protein levels: 30-40%
HCMV [3]
  HCMV UL122 (IE2) and UL123 (IE1) levels: decreases
HCMV [3]; 24 HPI, […] CAY10602, 50 μM trans-Resveratrol
  HCMV UL123 levels: unchanged
HCMV [3]; 48 HPI, […] CAY10602, 50 μM trans-Resveratrol
  HCMV UL26 levels: decreased
HCMV [3]; by 48 HPI
  HCMV viral protein production: global reduction
HCMV [3]; by 72 HPI, […] CAY10602, 50 μM trans-Resveratrol
  HCMV UL99 levels: robustly decreased
HCMV [3]; by 120 HPI, […] CAY10602, 50 μM trans-Resveratrol
  global decrease in HCMV viral protein levels: ~70%
iSLK.219 cell line
  toxicity to the iSLK.219 cell line: toxic
HCMV [4]; […] CAY10602, 50 μM trans-Resveratrol
  decrease in HCMV titers: ~50%
HCMV [4]
  HCMV titers: decreased
